Results from PubChem BioAssay AID256 (DTP/NCI, 2004).
Where “and” joins values, the source holds several entries; their conditions need not be identical. Equal entries are not always repeated. Toxic doses and inconclusive results are not listed. The calls were made as follows: active = survival T/C of 150% or more; inactive = T/C below 125% in these data.

Test system: CD2F1 mice, L1210 leukemia ip, survival T/C
Test: NCI In Vivo Anticancer Drug Screen. Data for tumor model L1210 Leukemia (intraperitoneal) in CD2F1 (CDF1) mice
Conditions: higher = longer survival
Method in brief: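 Compound-dosed mice with transplantable tumor versus matched vehicle controls; endpoint ratio T/C reported.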

[1] = endpoint: mean survival time, dose: 100.0 mg/kg/injection, schedule: Q04DX003 (ip), vehicle: saline with Tween-80
[2] = endpoint: mean survival time, dose: 200.0 mg/kg/injection, schedule: Q04DX003 (ip), vehicle: saline with Tween-80
[3] = endpoint: mean survival time, dose: 400.0 mg/kg/injection, schedule: Q04DX003 (ip), vehicle: saline with Tween-80
[4] = endpoint: mean survival time, dose: 25.0 mg/kg/injection, schedule: Q04DX002 (ip), vehicle: saline with Tween-80
[5] = endpoint: mean survival time, dose: 50.0 mg/kg/injection, schedule: Q04DX002 (ip), vehicle: saline with Tween-80
[6] = endpoint: mean survival time, dose: 100.0 mg/kg/injection, schedule: Q01DX001 (ip), vehicle: saline with Tween-80
[7] = endpoint: mean survival time, dose: 100.0 mg/kg/injection, schedule: Q01DX009 (ip), vehicle: saline with Tween-80
[8] = endpoint: mean survival time, dose: 100.0 mg/kg/injection, schedule: Q04DX002 (ip), vehicle: saline with Tween-80
[9] = endpoint: mean survival time, dose: 200.0 mg/kg/injection, schedule: Q01DX001 (ip), vehicle: saline with Tween-80
[10] = endpoint: mean survival time, dose: 200.0 mg/kg/injection, schedule: Q01DX009 (ip), vehicle: saline with Tween-80
[11] = endpoint: mean survival time, dose: 400.0 mg/kg/injection, schedule: Q01DX001 (ip), vehicle: saline with Tween-80
[12] = endpoint: mean survival time, dose: 400.0 mg/kg/injection, schedule: Q01DX009 (ip), vehicle: saline with Tween-80
[13] = endpoint: mean survival time, dose: 12.5 mg/kg/injection, schedule: Q01DX009 (ip), vehicle: saline
[14] = endpoint: mean survival time, dose: 25.0 mg/kg/injection, schedule: Q01DX009 (ip), vehicle: saline
[15] = endpoint: mean survival time, dose: 3.13 mg/kg/injection, schedule: Q04DX003 (ip), vehicle: distilled water + Tween-80
[16] = endpoint: mean survival time, dose: 6.25 mg/kg/injection, schedule: Q04DX003 (ip), vehicle: distilled water + Tween-80
[17] = endpoint: mean survival time, dose: 12.5 mg/kg/injection, schedule: Q04DX003 (ip), vehicle: distilled water + Tween-80
[18] = endpoint: mean survival time, dose: 25.0 mg/kg/injection, schedule: Q04DX003 (ip), vehicle: distilled water + Tween-80
[19] = endpoint: mean survival time, dose: 50.0 mg/kg/injection, schedule: Q04DX003 (ip), vehicle: distilled water + Tween-80
[20] = endpoint: mean survival time, dose: 100.0 mg/kg/injection, schedule: Q04DX003 (ip), vehicle: distilled water + Tween-80
[21] = endpoint: mean survival time, dose: 100.0 mg/kg/injection, schedule: Q04DX003 (ip), vehicle: other
[22] = endpoint: mean survival time, dose: 200.0 mg/kg/injection, schedule: Q04DX003 (ip), vehicle: other
[23] = endpoint: mean survival time, dose: 400.0 mg/kg/injection, schedule: Q04DX003 (ip), vehicle: other
[24] = endpoint: mean survival time, dose: 100.0 mg/kg/injection, schedule: Q01DX001 (ip), vehicle: Klucel (hydroxypropylcellulose) (HPC)
[25] = endpoint: mean survival time, dose: 200.0 mg/kg/injection, schedule: Q01DX001 (ip), vehicle: Klucel (hydroxypropylcellulose) (HPC)

Measured: T/C

COC1OC(COC(=O)c2ccccc2)C(OC(=O)c2ccccc2)C(OC(=O)c2ccccc2)C1OC(=O)c1ccccc1 (configuration not stated)
inactive: [1] 95 % of control | [2] 91 % of control | [3] 87 % of control

COc1ccc(NC(=O)Nc2ccc([N+](=O)[O-])cc2OC)c(Cl)c1
inactive: [4] 88 % of control and 101 % of control | [5] 95 % of control and 103 % of control | [6] 94 % of control | [7] 88 % of control and 95 % of control | [8] 95 % of control | [1] 97 % of control | [9] 101 % of control | [10] 88 % of control and 97 % of control | endpoint: mean survival time, dose: 200.0 mg/kg/injection, schedule: Q04DX002 (ip), vehicle: saline with Tween-80 93 % of control | [2] 95 % of control | [11] 86 % of control and 91 % of control | [12] 90 % of control and 100 % of control | endpoint: mean survival time, dose: 400.0 mg/kg/injection, schedule: Q04DX002 (ip), vehicle: saline with Tween-80 98 % of control | [3] 101 % of control

NNC1CC2CCC1C2 (configuration not stated)
inactive: [13] 95 % of control | [14] 93 % of control

CN(N=O)C(=O)NCC1OC(OC2(CO)OC(CNC(=O)N(C)N=O)C(O)C2O)C(O)C(O)C1O (configuration not stated)
inactive: endpoint: mean survival time, dose: 50.0 mg/kg/injection, schedule: Q01DX009 (ip), vehicle: saline 119 % of control | endpoint: mean survival time, dose: 100.0 mg/kg/injection, schedule: Q01DX009 (ip), vehicle: saline 122 % of control | endpoint: mean survival time, dose: 133.0 mg/kg/injection, schedule: Q01DX009 (ip), vehicle: saline 107 % of control

CCN1CCSC1=S
inactive: endpoint: mean survival time, dose: 75.0 mg/kg/injection, schedule: Q01DX001 (ip), vehicle: other 102 % of control | endpoint: mean survival time, dose: 150.0 mg/kg/injection, schedule: Q01DX001 (ip), vehicle: other 100 % of control | endpoint: mean survival time, dose: 300.0 mg/kg/injection, schedule: Q01DX001 (ip), vehicle: other 103 % of control

CSc1c(Cl)cc(Cl)cc1C(=O)O
inactive: [1] 94 % of control | [2] 91 % of control | [3] 96 % of control

O=P(O)(O)OP(=O)(O)O.[NH-]CC[NH-].[NH-]CC[NH-].[Pd+2].[Pd+2]
inactive: [15] 98 % of control | [16] 93 % of control | [17] 87 % of control | [18] 96 % of control | [19] 100 % of control | [20] 105 % of control

CC(=O)C1CN(C(C)(C)C)C1
inactive: endpoint: mean survival time, dose: 6.25 mg/kg/injection, schedule: Q01DX009 (ip), vehicle: saline 93 % of control | endpoint: mean survival time, dose: 6.25 mg/kg/injection, schedule: Q04DX003 (ip), vehicle: saline 98 % of control | [13] 98 % of control | endpoint: mean survival time, dose: 12.5 mg/kg/injection, schedule: Q04DX003 (ip), vehicle: saline 96 % of control | [14] 98 % of control | endpoint: mean survival time, dose: 25.0 mg/kg/injection, schedule: Q04DX003 (ip), vehicle: saline 95 % of control

Nc1cccc2c1C(=O)c1ccccc1C2=O
inactive: [21] 97 % of control | [22] 92 % of control | [23] 95 % of control

NN(C(=O)c1ccccc1)c1ccccc1
inactive: [7] 98 % of control | [1] 95 % of control | [2] 97 % of control | [3] 100 % of control

CC1(Br)CS(=O)(=O)CC1(C)Br (configuration not stated)
inactive: endpoint: mean survival time, dose: 75.0 mg/kg/injection, schedule: Q01DX001 (ip), vehicle: saline with Tween-80 104 % of control | endpoint: mean survival time, dose: 150.0 mg/kg/injection, schedule: Q01DX001 (ip), vehicle: saline with Tween-80 98 % of control | endpoint: mean survival time, dose: 300.0 mg/kg/injection, schedule: Q01DX001 (ip), vehicle: saline with Tween-80 101 % of control

COC(=O)c1ccc(N2C(=O)C=CC2=O)cc1
inactive: endpoint: mean survival time, dose: 1.5 mg/kg/injection, schedule: Q01DX009 (ip), vehicle: saline with Tween-80 108 % of control | endpoint: mean survival time, dose: 3.0 mg/kg/injection, schedule: Q01DX009 (ip), vehicle: saline with Tween-80 108 % of control

CC(C)CCCC(C)[C@@H]1CCC2[C@H]3CCC4(C)CC5=C(C[C@@]4(C)C3CC[C@]21C)C(=O)CC1C2CCCCC2CCN51 (some centres not stated)
inactive: [6] 102 % of control | [9] 90 % of control | [11] 90 % of control

CCN(CC)Cc1cc(Nc2cc(C)nc(/N=C(\N)Nc3cc(Cl)cc(Cl)c3)n2)ccc1O
inactive: endpoint: mean survival time, dose: 12.5 mg/kg/injection, schedule: Q01DX009 (ip), vehicle: Klucel (hydroxypropylcellulose) (HPC) 93 % of control | endpoint: mean survival time, dose: 25.0 mg/kg/injection, schedule: Q01DX009 (ip), vehicle: Klucel (hydroxypropylcellulose) (HPC) 102 % of control | [4] 97 % of control | endpoint: mean survival time, dose: 50.0 mg/kg/injection, schedule: Q01DX009 (ip), vehicle: Klucel (hydroxypropylcellulose) (HPC) 105 % of control | [5] 94 % of control | [24] 95 % of control | [8] 94 % of control | [25] 115 % of control

Brc1sccc1-c1cccc2ccccc12
inactive: endpoint: mean survival time, dose: 25.0 mg/kg/injection, schedule: Q04DX003 (ip), vehicle: saline with Tween-80 104 % of control | endpoint: mean survival time, dose: 50.0 mg/kg/injection, schedule: Q04DX003 (ip), vehicle: saline with Tween-80 96 % of control | [1] 104 % of control

CC(C)C(C(=O)c1ccccc1)C(c1ccccc1)c1ccccc1 (configuration not stated)
inactive: [21] 106 % of control | [22] 97 % of control | [23] 100 % of control

[Cl][Pt+2][Cl].[NH-]c1nc(-c2ccccc2)cs1.[NH-]c1nc(-c2ccccc2)cs1
inactive: [15] 101 % of control | [16] 101 % of control | [17] 96 % of control | [18] 102 % of control | [19] 96 % of control | [20] 98 % of control | endpoint: mean survival time, dose: 200.0 mg/kg/injection, schedule: Q04DX003 (ip), vehicle: distilled water + Tween-80 98 % of control

OCCNC(=S)SCc1ccccc1
inactive: [1] 94 % of control | [2] 100 % of control | [3] 98 % of control

NC(=O)c1nccnc1C(N)=O
inactive: [24] 101 % of control | [25] 108 % of control | endpoint: mean survival time, dose: 400.0 mg/kg/injection, schedule: Q01DX001 (ip), vehicle: Klucel (hydroxypropylcellulose) (HPC) 101 % of control

C[Si](C)c1cccc(Cl)c1
inactive: [7] 104 % of control | [10] 100 % of control

CC(=O)OC/C=C(C)/C=C/C=C(C)/C=C/C1=C(C)CCCC1(C)C
inactive: endpoint: mean survival time, dose: 200.0 mg/kg/injection, schedule: Q01DX001 (ip), vehicle: steriod suspending solution 96 % of control | endpoint: mean survival time, dose: 200.0 mg/kg/injection, schedule: Q01DX009 (ip), vehicle: steriod suspending solution 96 % of control | endpoint: mean survival time, dose: 400.0 mg/kg/injection, schedule: Q01DX001 (ip), vehicle: steriod suspending solution 102 % of control | endpoint: mean survival time, dose: 400.0 mg/kg/injection, schedule: Q01DX009 (ip), vehicle: steriod suspending solution 93 % of control | endpoint: mean survival time, dose: 800.0 mg/kg/injection, schedule: Q01DX001 (ip), vehicle: steriod suspending solution 92 % of control | endpoint: mean survival time, dose: 800.0 mg/kg/injection, schedule: Q01DX009 (ip), vehicle: steriod suspending solution 86 % of control | endpoint: mean survival time, dose: 1600.0 mg/kg/injection, schedule: Q01DX001 (ip), vehicle: steriod suspending solution 92 % of control

COc1nc(NC2OCC(O)C(O)C2O)c(C(C)=O)c(=O)n1C (configuration not stated)
inactive: endpoint: median survival time, dose: 12.5 mg/kg/injection, schedule: Q01DX005 (ip), vehicle: saline with Tween-80 91 % of control | endpoint: median survival time, dose: 25.0 mg/kg/injection, schedule: Q01DX005 (ip), vehicle: saline with Tween-80 98 % of control | endpoint: median survival time, dose: 50.0 mg/kg/injection, schedule: Q01DX005 (ip), vehicle: saline with Tween-80 97 % of control | endpoint: median survival time, dose: 100.0 mg/kg/injection, schedule: Q01DX005 (ip), vehicle: saline with Tween-80 96 % of control | endpoint: median survival time, dose: 200.0 mg/kg/injection, schedule: Q01DX005 (ip), vehicle: saline with Tween-80 96 % of control

O=[N+]([O-])c1ccc2c([N+](=O)[O-])cc(O)cc2c1
inactive: [6] 95 % of control | [7] 96 % of control | [9] 105 % of control | [10] 96 % of control | [11] 100 % of control | [12] 98 % of control
